In US9663534B2, “Fused bicyclic isoxazolines as inhibitors of cholesterol ester transfer protein” (Merck Sharp & Dohme Corp., priority 2013, dated 2017):

Tested on: not given
Test: not given
Details: patients treated with anacetrapib along with baseline statin therapy, compared with just a statin; cited from earlier work

With `COc1cc(F)c(C(C)C)cc1-c1ccc(C(F)(F)F)cc1CN1C(=O)O[C@H](c2cc(C(F)(F)F)cc(C(F)(F)F)c2)[C@@H]1C` [Anacetrapib] as the molecule, how does the “decrease of LDL-C” value read?
The value was 40%.

What about the “increase of HDL-C” value of the same molecule?
The value was 138%.

Biological target: T1, endogenous CETP from serum (Homo sapiens, UniProt P11597)
T1 construct: yielding a concentration of approximately 15 nM endogenous CETP in the assay; from tissue; host or cells: human serum
T1 sequence (P11597 18-493): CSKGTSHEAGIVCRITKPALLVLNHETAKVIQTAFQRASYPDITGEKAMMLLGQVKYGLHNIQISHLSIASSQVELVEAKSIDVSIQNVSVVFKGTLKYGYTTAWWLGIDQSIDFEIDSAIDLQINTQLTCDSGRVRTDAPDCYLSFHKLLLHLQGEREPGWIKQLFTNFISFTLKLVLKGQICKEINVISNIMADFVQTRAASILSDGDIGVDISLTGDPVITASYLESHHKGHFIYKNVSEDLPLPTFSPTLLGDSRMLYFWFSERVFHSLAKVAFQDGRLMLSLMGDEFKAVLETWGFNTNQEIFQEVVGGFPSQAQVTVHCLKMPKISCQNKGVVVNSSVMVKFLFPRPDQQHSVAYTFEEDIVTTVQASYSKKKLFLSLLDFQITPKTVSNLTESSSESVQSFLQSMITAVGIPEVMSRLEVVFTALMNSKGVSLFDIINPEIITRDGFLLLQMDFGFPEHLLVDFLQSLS
Test: RTA assay of CETP-catalyzed CE and TG transfer in 95% human serum (95% RTA)
Type: biochemical
Details: RTA assay in 95% human serum; read-out: IC50 (nM) RTA with 95% HS

Which IC50 does the source give for `COc1ccc(CCC(=O)O)cc1-c1ccc(C(F)(F)F)cc1[C@@H]1CC[C@@H]2C1=NO[C@@H]2c1cc(C(F)(F)F)cc(C(F)(F)F)c1` [Example 4, 3-[2′-{(3S,3aR,6S)-3-[3,5-bis(trifluoromethyl)phenyl]-3a,4,5,6-tetrahydro-3H-cyclopenta[c]isoxazol-6-yl}-6-methoxy-4′-(trifluoromethyl)biphenyl-3-yl]propanoic acid] here?
The IC50 was 3790 nM.

With `COc1ccc(-c2ccc(C(=O)O)cc2C)cc1-c1ccc(C(F)(F)F)cc1[C@@H]1CC[C@@H]2C1=NO[C@@H]2c1cc(C(F)(F)F)cc(C(F)(F)F)c1` [Example 5, 2″-{(3S,3aR,6S)-3-[3,5-bis(trifluoromethyl)phenyl]-3a,4,5,6-tetrahydro-3H-cyclopenta[c]isoxazol-6-yl}-4′-methoxy-2-methyl-4″- (trifluoromethyl)-1,1′:3′,1″- terphenyl-4-carboxylic acid] as the molecule, how does the IC50 read?
Its IC50 is 145 nM.

For `COc1ccc([C@H]2CC[C@H](C(=O)O)CC2)cc1-c1ccc(C(F)(F)F)cc1[C@@H]1CC[C@@H]2C1=NO[C@@H]2c1cc(C(F)(F)F)cc(C(F)(F)F)c1` [Example 6, trans-4-[2′-{(3S,3aR,6S)-3-[3,5-bis(trifluoromethyl)phenyl]-3a,4,5,6-tetrahydro-3H-cyclopenta[c]isoxazol-6-yl}-6-methoxy-4′-(trifluoromethyl)biphenyl-3-yl]cyclohexanecarboxylic acid], which IC50 is on record?
Its IC50 is 383 nM.

With `COc1ncc(-c2ccc(C(=O)O)cc2C)cc1-c1ccc(C(F)(F)F)cc1[C@@H]1CC[C@@H]2C1=NO[C@@H]2c1cc(F)cc(C(F)(F)F)c1` [Example 7, 4-(5-(2-((3S,3aR,6S)-3-(3-fluoro-5-(trifluoromethyl)phenyl)-3a,4,5,6-tetrahydro-3H-cyclopenta[c]isoxazol-6-yl)-4-(trifluoromethyl)phenyl)-6-methoxypyridin-3-yl)-3-methylbenzoic acid] as the molecule, how does the IC50 read?
The IC50 was 57 nM.

For `COc1ccc(-c2ccc(C(=O)O)cc2C)cc1-c1ccc(C(F)(F)F)cc1[C@@H]1CC[C@@H]2C1=NO[C@@H]2c1cc(F)cc(C(F)(F)F)c1` [Example 8, 2″-((3S,3aR,6S)-3-(3-fluoro-5-(trifluoromethyl)phenyl)-3a,4,5,6-tetrahydro-3H-cyclopenta[c]isoxazol-6-yl)-4′-methoxy-2-methyl-4″- (trifluoromethyl)-[1,1′:3′,1″- terphenyl]-4-carboxylic acid], which IC50 is on record?
Its IC50 is 36 nM.

For `COc1ncc(-c2ccc(C(=O)O)cc2C)cc1-c1ccc(C(F)(F)F)nc1[C@@H]1CC[C@@H]2C1=NO[C@@H]2c1cc(C(F)(F)F)cc(C(F)(F)F)c1` [Example 9, 4-[2′-{3-[3,5-bis(trifluoromethyl)phenyl]-3a,4,5,6-tetrahydro-3H-cyclopenta[c]isoxazol-6-yl}-2 methoxy-6′-(trifluoromethyl)-3,3′-bipyridin-5-yl]-3-methylbenzoic acid], which IC50 is on record?
Its IC50 is 287 nM.

Same assay, conditions: RTA assay in 95% human serum; read-out: IC50 RTA (95% HS)

With `COc1ncc(-c2ccc(C(=O)O)cc2C)cc1-c1ccc(C(F)(F)F)cc1[C@@H]1CC[C@@H]2C1=NO[C@@H]2c1cc(C(F)(F)F)cc(C(F)(F)F)c1` [Example 1A, 4-(5-(2-((3S,3aR,6S)-3-(3,5-bis(trifluoromethyl)phenyl)-3a,4,5,6-tetrahydro-3H-cyclopenta[c]isoxazol-6-yl)-4-(trifluoromethyl)phenyl)-6-methoxypyridin-3-yl)-3-methylbenzoic acid] as the molecule, how does the IC50 read?
Its IC50 is 70 nM.

For `COc1ncc(-c2ccc(C(=O)O)cc2C)cc1-c1ccc(C(F)(F)F)cc1[C@H]1CC[C@H]2C1=NO[C@H]2c1cc(C(F)(F)F)cc(C(F)(F)F)c1` [Example 1B, 4-(5-(2-((3R,3aS,6R)-3-(3,5-bis(trifluoromethyl)phenyl)-3a,4,5,6-tetrahydro-3H-cyclopenta[c]isoxazol-6-yl)-4-(trifluoromethyl)phenyl)-6-methoxypyridin-3-yl)-3-methylbenzoic acid], which IC50 is on record?
Its IC50 is 10000 nM.

For `COc1ccc(-c2ccc(C(=O)O)cc2C)cc1-c1cnc(C(F)(F)F)cc1[C@@H]1CC[C@@H]2C1=NO[C@@H]2c1cc(C(F)(F)F)cc(C(F)(F)F)c1` [Example 2A, 3′-(4-((3S,3aR,6S)-3-(3,5-bis(trifluoromethyl)phenyl)-3a,4,5,6-tetrahydro-3H-cyclopenta[c]isoxazol-6-yl)-6-(trifluoromethyl)pyridin-3-yl)-4′-methoxy-2-methyl-[1,1′-biphenyl]-4-carboxylic acid], which IC50 is on record?
Its IC50 is 1590 nM.

With `COc1ccc(-c2ccc(C(=O)O)cc2C)cc1-c1cnc(C(F)(F)F)cc1[C@H]1CC[C@H]2C1=NO[C@H]2c1cc(C(F)(F)F)cc(C(F)(F)F)c1` [Example 2B, 3′-(4-((3R,3aS,6R)-3-(3,5-bis(trifluoromethyl)phenyl)-3a,4,5,6-tetrahydro-3H-cyclopenta[c]isoxazol-6-yl)-6-(trifluoromethyl)pyridin-3-yl)-4′-methoxy-2-methyl-[1,1′-biphenyl]-4-carboxylic acid] as the molecule, how does the IC50 read?
The IC50 was 10000 nM.
